Measured values as given in patent US20120058920A1, “Method for Identifying Inhibitors Against Dengue Virus” (priority 2009, published 2012).
Where two headings read alike, the source gives them in different places.

System: dengue serotype 2
Test: Antiviral assay (dengue serotype 2), CPE inhibition in Vero cells with ATPLite luminescence readout
Assay type: cell-based, dengue virus
Method: 3. Antiviral assays (dengue serotype 2)
15 μl of Vero cells (1500 cells/well) were added to a 384-well white plate containing 10 μl of four-fold serially diluted testing compound in cell culture medium with 2% FCS. 15 μl of virus stock was then added to each well at a MOI of 0.1. Cell controls received only cells and medium, while virus controls received virus but no test compound. Plates were incubated at 37° C. until the viral CPE in the virus control wells reached ˜100% (5-6 days). ATPLite (Perkin Elmer) was added to all wells according to the supplier's instructions. Briefly, 40 μl of the reconstituted lyophilized substrate solution was added to each well. The plate was shaken at 700 rpm for 2 minutes and the luminescence was measured using a Viewlux apparatus (Perkin Elmer) by taking a 0.1-0.5-second integrated reading of each test plate. The results were expressed as EC50 values defined as the concentration of compound achieving 50% inhibition of the virus-reduced luminescence signals as compared with the uninfected cell control. The signal-to-noise ratio of an assay is the ratio between the mean luminescent signals of the cell controls and the virus controls. The dynamic range is defined as the ratio between the signals at the last (maximal signal) and first point in the linear range of the dose-response curve.
Intra-assay reproducibility was measured by performing each experiment in three identical plates with each concentration of drug in triplicate. Inter-assay reproducibility was measured by performing three independent experiments at different times under the same experimental conditions.

[1] = Dengue virus, Vero, accuracy of the assay, value ± spread over many measurements (# data 42-54), read-out: EC50
[2] = Dengue virus, Vero cells 1500 cells/well, MOI 0.1, 5-6 days, ATPLite, Exp. # 1, read-out: EC50 (μM) Exp. # 1
[3] = Dengue virus, Vero cells 1500 cells/well, MOI 0.1, 5-6 days, ATPLite, Exp. # 2, read-out: EC50 (μM) Exp. # 2
[4] = Dengue virus, Vero cells 1500 cells/well, MOI 0.1, 5-6 days, ATPLite, Exp. # 3, read-out: EC50 (μM) Exp. # 3
[5] = Dengue virus, Vero cells 1500 cells/well, MOI 0.1, 5-6 days, ATPLite, Exp. # 4, read-out: EC50 (μM) Exp. # 4
[6] = Dengue virus, Vero cells 1500 cells/well, MOI 0.1, 5-6 days, ATPLite, Exp. # 5, read-out: EC50 (μM) Exp. # 5
[7] = Dengue virus, Vero cells 1500 cells/well, MOI 0.1, 5-6 days, ATPLite, Exp. # 6, read-out: EC50 (μM) Exp. # 6
[8] = Dengue virus, Vero cells 1500 cells/well, MOI 0.1, 5-6 days, ATPLite, Exp. # 7, read-out: EC50 (μM) Exp. # 7

Molecule	EC50 [1]	EC50 [2]	EC50 [3]	EC50 [4]	EC50 [5]	EC50 [6]	EC50 [7]	EC50 [8]	EC50 (accuracy of the assay, value ± spread over 30 measurements)
C[C@@]1(O)[C@H](O)[C@@H](CO)O[C@H]1n1ccc(N)nc1=O [2′-C-methylcytidine]	12.6 ± 3.32 µM	13.5 µM	14.6 µM	10.3 µM	10.4 µM	6.73 µM	14 µM	17.4 µM	–
Interferon-α	–	–	–	–	–	–	–	–	861.2 IU/ml ± 427.11
NC(=O)c1ncn([C@@H]2O[C@H](CO)[C@@H](O)[C@H]2O)n1 [Ribavirin]	53 ± 10.2 µM	52 µM	53.8 µM	43.8 µM	42.4 µM	47.7 µM	69 µM	67.5 µM	–
O=c1cnn([C@@H]2O[C@H](CO)[C@@H](O)[C@H]2O)c(=O)[nH]1 [6-Azauridine]	4.53 ± 0.83 µM	5.52 µM	4.85 µM	3.74 µM	4.26 µM	4.6 µM	3.81 µM	5.14 µM	–
